Laboratory results as given in patent US12145944B2, “Imidazopyrimidines as EED inhibitors and the use thereof” (THE REGENTS OF THE UNIVERSITY OF MICHIGAN, priority 2019, dated 2024).
pIC50: −log10 of the molar value.

How the values were obtained:
[1] = test system: KARPAS422 human B cell lymphoma cell; assay: Cell proliferation, KARPAS422, 7 day treatment (WST-8); format: cell-based; conditions: Homo sapiens, KARPAS-422, 168 h, anti-proliferative IC50 class, Karpas 422 cell line, 7 day treatment; read-out: Karpas Cell line
Method in brief: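 Read-out was WST-8 absorbance at 450 nm after 1-4 h with reagent, taken after 7-day compound treatment (serial dilutions, 37 °C, 5% CO2) of 2 000-3 000 KARPAS422 cells per well. IC50 fitted by nonlinear regression on DMSO-normalized values.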

[2] = test system: Pfeiffer cell line; assay: Anti-proliferative activity, Pfeiffer cell line, 7 day treatment; format: cell-based; conditions: Homo sapiens, 168 h; anti-proliferative IC50 class, Pfeiffer cell line, 7 day treatment; read-out: Pfeiffer Cell line
Description: “N/A” stands for “not assessed”.
To assess the effect of PRC2 inhibition on cell growth, cells were seeded in 96-well cell culture plates at a density of 2 000-3 000 cells/well in 200 µL of culture medium, and treated with serially diluted compounds for 7 days at 37° C. in an atmosphere of 5% CO2. Cell growth was evaluated by a […] WST-8 assay (Dojindo Molecular Technologies) using a Tecan Infinite M1000 multimode microplate reader (Tecan, Morrisville, NC). The WST-8 reagent was added to the plate, incubated for 1-4 h, and read at 450 nm. The readings were normalized to the DMSO-treated cells, and the IC50 was calculated by nonlinear regression analysis using GraphPad Prism 6 software

Structure (SMILES)	pIC50 [1]	pIC50 [2]
O=C1c2ncn3c(NCc4c(F)ccc5c4CCO5)ncc(c23)-c2ccc(C3CC3)nc2CN1CC(F)(F)F [E 14, 7-cyclopropyl-12-(((5-fluoro-2,3-dihydrobenzofuran-4-yl)methyl)amino)-4-(2,2,2-trifluoroethyl)-4,5-dihydro-3H-2,4,6,11,12a-pentaazabenzo[4,5]cycloocta[1,2,3-cd]inden-3-one]	> 8.00	> 8.00
CC(C)c1ccc2c(n1)CN(CC(F)(F)F)C(=O)c1ncn3c(NCc4c(F)ccc5c4CCO5)ncc-2c13 [E 15, 12-(((5-fluoro-2,3-dihydrobenzofuran-4-yl)methyl)amino)-7-isopropyl-4-(2,2,2-trifluoroethyl)-4,5-dihydro-3H-2,4,6,11,12a-pentaazabenzo[4,5]cycloocta[1,2,3-cd]inden-3-one]	> 8.00	> 8.00
CCc1ccc2c(n1)CN(CC(C)(F)F)C(=O)c1ncn3c(NCc4c(F)ccc5c4CCO5)ncc-2c13 [E 16, 4-(2,2-difluoropropyl)-7-ethyl-12-(((5-fluoro-2,3-dihydrobenzofuran-4-yl)methyl)amino)-4,5-dihydro-3H-2,4,6,11,12a-pentaazabenzo[4,5]cycloocta[1,2,3-cd]inden-3-one]	> 8.00	> 8.00
Cc1cnc2n1Cc1ncccc1-c1cnc(NCc3c(F)ccc4c3CCO4)n3cnc-2c13 [E 17, N-((5-fluoro-2,3-dihydrobenzofuran-4-yl)methyl)-5-methyl-6H-2,3,5a,7,12,13a-hexaazabenzo[4,5]cyclopenta[7,8]cycloocta[1,2,3-cd]inden-13-amine]	7.00 to 8.00	7.00 to 8.00
Cc1ccc2c(n1)Cn1c(C)cnc1-c1ncn3c(NCc4c(F)ccc5c4CCO5)ncc-2c13 [E 18, N-((5-fluoro-2,3-dihydrobenzofuran-4-yl)methyl)-5,8-dimethyl-6H-2,3,5a,7,12,13a-hexaazabenzo[4,5]cyclopenta[7,8]cycloocta[1,2,3-cd]inden-13-amine]	7.00 to 8.00	> 8.00
[2H]C([2H])(Nc1ncc2c3c(ncn13)C(=O)N(CC(F)(F)F)Cc1cc(C(=O)N(C)C)ccc1-2)c1c(F)ccc2c1CCO2 [E 24, 12-(((5-fluoro-2,3-dihydrobenzofuran-4-yl)methyl-d2)amino)-N,N-dimethyl-3-oxo-4-(2,2,2-trifluoroethyl)-4,5-dihydro-3H-2,4,11,12a-tetraazabenzo[4,5]cycloocta[1,2,3-cd]indene-7-carboxamide]	7.00 to 8.00	7.00 to 8.00
O=C1NCCc2ccccc2-c2cnc(NCc3c(F)ccc4c3CCO4)n3cnc1c23 [E 28, 13-(((5-fluoro-2,3-dihydrobenzofuran-4-yl)methyl)amino)-5,6-dihydro-2,4,12,13a-tetraazabenzo[4,5]cyclonona[1,2,3-cd]inden-3(4H)-one]	< 7.00	7.00 to 8.00
Cc1ccc2c(n1)CCNC(=O)c1ncn3c(NCc4c(F)ccc5c4CCO5)ncc-2c13 [E 29, 13-(((5-fluoro-2,3-dihydrobenzofuran-4-yl)methyl)amino)-8-methyl-5,6-dihydro-2,4,7,12,13a-pentaazabenzo[4,5]cyclonona[1,2,3-cd]inden-3(4H)-one]	7.00 to 8.00	7.00 to 8.00
Cc1ccc2c(n1)CCN(CC(F)(F)F)C(=O)c1ncn3c(NCc4c(F)ccc5c4CCO5)ncc-2c13 [E 30, 13-(((5-fluoro-2,3-dihydrobenzofuran-4-yl)methyl)amino)-8-methyl-4-(2,2,2-trifluoroethyl)-5,6-dihydro-2,4,7,12,13a-pentaazabenzo[4,5]cyclonona[1,2,3-cd]inden-3(4H)-one]	7.00 to 8.00	7.00 to 8.00
CC(C)N1CCc2cc(C(F)(F)F)ncc2-c2cnc(NCc3c(F)ccc4c3CCO4)n3cnc(c23)C1=O [E 31, 13-(((5-fluoro-2,3-dihydrobenzofuran-4-yl)methyl)amino)-4-isopropyl-8-(trifluoromethyl)-5,6-dihydro-2,4,9,12,13a-pentaazabenzo[4,5]cyclonona[1,2,3-cd]inden-3(4H)-one]	7.00 to 8.00	7.00 to 8.00
Fc1ccc2c(c1CNc1ncc3c4c(ncn14)-c1nccn1Cc1nc(C(F)(F)F)ccc1-3)CCO2 [E 32, N-((5-fluoro-2,3-dihydrobenzofuran-4-yl)methyl)-8-(trifluoromethyl)-6H-2,3,5a,7,12,13a-hexaazabenzo[4,5]cyclopenta[7,8]cycloocta[1,2,3-cd]inden-13-amine]	7.00 to 8.00	> 8.00
Fc1ccc2c(c1CNc1ncc3c4c(ncn14)-c1nccn1Cc1cc(C(F)(F)F)ncc1-3)CCO2 [E 33, N-((5-fluoro-2,3-dihydrobenzofuran-4-yl)methyl)-8-(trifluoromethyl)-6H-2,3,5a,9,12,13a-hexaazabenzo[4,5]cyclopenta[7,8]cycloocta[1,2,3-cd]inden-13-amine]	7.00 to 8.00	7.00 to 8.00

Results, then the compound that gave them:

pIC50 [1]	pIC50 [2]	Structure (SMILES)
7.00 to 8.00	> 8.00	Cc1ccc2c(n1)Cn1ccnc1-c1ncn3c(NCc4c(F)ccc5c4CCO5)ncc-2c13 [E 34, N-((5-fluoro-2,3-dihydrobenzofuran-4-yl)methyl)-8-methyl-6H-2,3,5a,7,12,13a-hexaazabenzo[4,5]cyclopenta[7,8]cycloocta[1,2,3-cd]inden-13-amine]
7.00 to 8.00	7.00 to 8.00	Cc1onc2c1Cc1cc(C(F)(F)F)ncc1-c1cnc(NCc3c(F)ccc4c3CCO4)n3cnc-2c13 [E 35, N-((5-fluoro-2,3-dihydrobenzofuran-4-yl)methyl)-5-methyl-8-(trifluoromethyl)-6H-4-oxa-2,3,9,12,13a-pentaazabenzo[4,5]cyclopenta[7,8]cycloocta [1,2,3-cd]inden-13-amine]
7.00 to 8.00	7.00 to 8.00	Cc1ccc2c(n1)Cc1conc1-c1ncn3c(NCc4c(F)ccc5c4CCO5)ncc-2c13 [E 36, N-((5-fluoro-2,3-dihydrobenzofuran-4-yl)methyl)-8-methyl-6H-4-oxa-2,3,7,12,13a-pentaazabenzo[4,5]cyclopenta[7,8]cycloocta [1,2,3-cd]inden-13-amine]
7.00 to 8.00	7.00 to 8.00	CCc1cnc2n1Cc1cc(C(F)(F)F)ncc1-c1cnc(NCc3c(F)ccc4c3CCO4)n3cnc-2c13 [E 37, 5-ethyl-N-((5-fluoro-2,3-dihydrobenzofuran-4-yl)methyl)-8-(trifluoromethyl)-6H-2,3,5a,9,12,13a-hexaazabenzo[4,5]cyclopenta[7,8]cycloocta[1,2,3-cd]inden-13-amine]
7.00 to 8.00	7.00 to 8.00	CCc1cnc2n1Cc1nc(C)ccc1-c1cnc(NCc3c(F)ccc4c3CCO4)n3cnc-2c13 [E 38, 5-ethyl-N-((5-fluoro-2,3-dihydrobenzofuran-4-yl)methyl)-8-methyl-6H-2,3,5a,7,12,13a-hexaazabenzo[4,5]cyclopenta[7,8]cycloocta[1,2,3-cd]inden-13-amine]
7.00 to 8.00	> 8.00	Cc1ccc2c(n1)CN(CC(F)(F)F)C(=O)c1ncn3c(NCc4c(F)ccc5c4CCCO5)ncc-2c13 [E 39, 12-(((6-fluorochroman-5-yl)methyl)amino)-7-methyl-4-(2,2,2-trifluoroethyl)-4,5-dihydro-3H-2,4,6,11,12a-pentaazabenzo[4,5]cycloocta[1,2,3-cd]inden-3-one]
